{"source": "a melting point compilation (Tetko et al.; mined from patent text by program, amines drawn as free bases though some values may be those of a salt)"}
{"units": {"melting point": "°C"}}
{"smiles": "CC(C)c1cc(-c2ccc(F)cc2)n(-c2ncccn2)n1", "melting point": "102 to 103"}
{"smiles": "CC(C)(C)N(O)CC(O)c1cc(F)c(N)c(Br)c1", "note": "(stereo not given)", "melting point": "122 to 125"}
{"smiles": "Cc1cc(SC2=C(O)CC(CCC3CCCC3)(C3CCCC3)OC2=O)c(C(C)(C)C)cc1CO", "note": "(stereo not given)", "melting point": "68 to 71"}
{"smiles": "CCOC(C)O[C@@H](C(=O)OC(=O)[C@H](OC(C)OCC)[C@@H](NC(=O)OC(C)(C)C)c1ccccc1)[C@@H](NC(=O)OC(C)(C)C)c1ccccc1", "note": "(stereo not given in full)", "melting point": 43}
{"smiles": "COc1cccc(Cc2cc(-c3ccccc3)c(-c3ccccc3)s2)c1", "melting point": "100 to 102"}
{"smiles": "Fc1cc(CC2(Cc3ccnc(F)c3)c3ccccc3-c3ncncc32)ccn1", "melting point": "171 to 174"}
{"smiles": "CC(C)N(CCNC(=O)N1CCCC(S(=O)(=O)c2ccccc2)C1)C(C)C", "note": "(stereo not given)", "melting point": "82.5 to 84"}
{"smiles": "CCOC(OCC)c1cc(NC(c2ccccc2)(c2ccccc2)c2ccccc2)c(F)c(CC2CC2)n1", "melting point": "120 to 121"}
{"smiles": "ClC1CCCOC1c1ccccc1", "note": "(stereo not given)", "melting point": "39.5 to 40.5"}
{"smiles": "O=C(Nc1cc([N+](=O)[O-])cc([N+](=O)[O-])c1)c1cc(Br)ccc1O", "melting point": "258 to 260"}
{"smiles": "Nc1ncc(-c2ccncc2)cn1", "melting point": "180 to 182"}
{"smiles": "Cc1[nH]n(C2CCCC2)c2nc(-c3cc[nH]c(=O)c3)nc(=O)c1-2", "melting point": "> 300"}
{"smiles": "O=C(NCC1CCC1)NCC1CCC1", "melting point": "153 to 155"}
{"smiles": "CNC(=O)ON=C1OCCSC1(C)C", "melting point": "67 to 68"}
{"smiles": "CC12CCC3C(C=CC4=CC(=O)CCC43CO)C1CCC2C(=O)CO", "note": "(stereo not given)", "melting point": "161 to 164"}
{"smiles": "CC1(C)CNc2nc3cnc4ccccc4c3n2C1", "melting point": "326 to 330"}
{"smiles": "CC12CCC(C(=Cc3ccc(CC(SSCC(=O)O)C(=O)O)cc3)C1=O)C2(C)C", "note": "(stereo not given)", "melting point": 116}
{"smiles": "COc1ccc(N2CCN(Cc3ccc(Nc4ccnc5cc(C(F)(F)F)ccc45)cc3)CC2)cc1", "melting point": "235 to 237"}
{"smiles": "Nc1cc([N+](=O)[O-])ccc1Nc1cccc(-c2nccs2)c1", "melting point": "146 to 159"}
{"smiles": "CN1CCC(c2c[nH]c3ccc(C(=O)c4ccc(OC(F)(F)F)cc4)cc23)CC1", "melting point": "172 to 175"}
{"smiles": "N#Cc1cc(F)ccc1N1CCNCC1", "melting point": "83 to 83.5"}
{"smiles": "CCOC(=O)C=Cc1cc2c(cn1)[nH]c1ccccc12", "melting point": "132 to 134"}
{"smiles": "CCOP(=O)(Cc1ccc2nc(-c3ccc(OC)cc3)oc2c1)OCC", "melting point": "86 to 88"}
{"smiles": "CC(C)C1C(=O)OC(=O)N1c1ccc(Cl)cc1", "note": "(stereo not given)", "melting point": "137 to 138"}
{"smiles": "COc1ccc(C2=NN(c3ccc(C(=O)N4CCN(c5c(Cl)cncc5Cl)CC4)cc3)C(=O)[C@@H]3CC=CC[C@H]23)cc1OC", "melting point": "137 to 139"}
{"smiles": "CC(C)(CC(=O)O)SC(CCCc1ccccc1)c1ccc(OCc2ccc3ccccc3n2)cc1", "note": "(stereo not given)", "melting point": "90 to 92"}
{"smiles": "O=C1COC(=O)C(Cc2ccccc2)O1", "note": "(stereo not given)", "melting point": "64 to 65"}
{"smiles": "CCOC(=O)c1cnc2c(NC(=O)c3c(Cl)cccc3Cl)cccc2c1S", "melting point": "197 to 199"}
{"smiles": "O=C(NCCCCOc1ccc(-n2ccnc2)cc1)c1ccc(Br)cc1", "melting point": "140 to 141"}
{"smiles": "CCC(=O)Cn1c(C)cn(N=Cc2cccnc2)c1=O", "melting point": "183 to 184"}
{"smiles": "COc1c(NC(=O)c2ccccc2)cccc1C(=O)NC1C(Cl)=CC(C(F)(c2ccc(Cl)cc2)C(F)(F)F)=CC1(Cl)OC", "note": "(stereo not given)", "melting point": "163 to 166"}
{"smiles": "COc1cc(Nc2c(C#N)cnc3cc(Br)ccc23)c(Cl)cc1Cl", "melting point": "192 to 193"}
{"smiles": "Cc1ccc(C(=O)c2cccc3c2CCC3=O)cc1", "melting point": "105 to 108"}
{"smiles": "CC(=O)Oc1ccc2nc(C(N)=O)nc(O)c2c1", "melting point": 250}
{"smiles": "CN(c1cc(OCCO)cc2cc(C3=NCC(CN4CCSCC4)S3)[nH]c12)S(=O)(=O)c1ccccn1", "note": "(stereo not given)", "melting point": "160 to 162"}
{"smiles": "Cc1cc(F)cc(C)c1Cl", "melting point": "64 to 65"}
{"smiles": "COc1ccc2c(c1)C(NC(C)C)=C(C(N)=O)S2=O", "note": "(stereo not given)", "melting point": 194}
{"smiles": "C=Cc1ncc2[nH]c3cccc(OCc4ccccc4)c3c2c1COC", "melting point": "183 to 185"}
{"smiles": "OCc1cnn(-c2c(Cl)cc(C(F)(F)F)cc2Cl)n1", "melting point": "87 to 88"}
{"smiles": "Nc1ncnc2cccc(Oc3ccc(F)cc3)c12", "melting point": "188 to 190"}
